Consider 48 molecules from patent EP1724268A1, “COMPOUND HAVING TGF-BETA INHIBITORY ACTIVITY AND PHARMACEUTICAL COMPOSITION CONTAINING SAME” (KIRIN BEER KABUSHIKI KAISHA, priority 2004, dated 2005).

The subject of this test is TGFβ signal. Put plainly: TGFβ signal inhibitory activity, (SBE)4-Luc reporter in A549 cells (Test Examples 1A and 1B). The class given is cell-based, human. The settings on record: Homo sapiens. Summed up:
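Stable A549 line carrying (SBE)4-Luc Smad3-binding reporter treated with compound plus TGFβ-1 (2 ng/ml) for 4 hr; luciferase read by chemiluminescence. Percent inhibition relative to TGFβ-only and untreated cells, tested at 3 µM and 10 µM, some also at 1 µM.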

[1] abbreviates: A549, 3 µM, compounds of Reference Examples (Test Example 1B), read-out: TGFβ inhibition rate, %.
[2] abbreviates: A549, 10 µM, compounds of Reference Examples (Test Example 1B), read-out: TGFβ inhibition rate, %.
Where [3] appears, read: A549, test compound 3 µM, Reference Examples, Table 1B, read-out: TGFβ inhibition rate, %.
The mark [4] stands for this setting: A549, test compound 10 µM, Reference Examples, Table 1B, read-out: TGFβ inhibition rate, %.
Setting [5] is: A549, test compound 3 µM, TGFβ-1 2 ng/ml, 4 hr, Table 1A, read-out: TGFβ inhibition rate, %.
Where [6] appears, read: A549, test compound 10 µM, TGFβ-1 2 ng/ml, 4 hr, Table 1A, read-out: TGFβ inhibition rate, %.
Setting [7] is: A549, read-out: TGFβ inhibition rate, %.

Molecules are shown by their SMILES. Read-outs that look alike come from different tables or passages of the source.

Broadly, the inhibition is the relative decrease from the control value, in per cent. Turning to `CCCCOc1ccc(Oc2ccnc3cc(OC)c(OC)cc23)c(C(C)=O)c1` [r180], under setting [1], the inhibition at 3 µM is -2%. The inhibition at 10 µM under setting [2] is 55%.

Consider `COc1cc2c(Oc3ccc(C)cc3C(=O)c3ccccc3)ccnc2cc1OCCCN1CCN(C)CC1` [r138], for which the inhibition at 3 µM under setting [3] turned out to be 96%. Further, under setting [4], the inhibition at 10 µM was determined as 100%. In the case of `COc1cc2nccc(Oc3ccc(C)cc3C(=O)CC(C)(C)C)c2cc1OC` [Compound r55], under setting [3], the inhibition at 3 µM was determined as 53%. Moreover, under setting [4], the inhibition at 10 µM was determined as 98%. On the same counts, the results for `COc1cc2nccc(Oc3ccc(Br)cc3C(=O)Nc3ccc(Cl)cc3)c2cc1OC` [Compound r108] are 0% and 73%. Take `COc1cc2nccc(Oc3ccnc4ccsc34)c2cc1OC` [Compound r307]: the inhibition at 3 µM under setting [1] stood at 26%. Besides, the inhibition at 10 µM under setting [2] stood at 69%. Take `COc1cc2nccc(Oc3cc(C)c(Cl)cc3C(=O)c3ccccc3)c2cc1OC` [r75]: under setting [3], the inhibition at 3 µM came to 97%. Also, the inhibition at 10 µM under setting [4] was determined as 100%. For `COc1cc2nccc(Oc3ccc(C)nc3C(C)=O)c2cc1OC` [Compound r117, 1-{[3-(6,7-Dimethoxy-4-quinolyl)oxy]-6-methyl-2-pyridyl}-1-ethanone], under setting [3], the inhibition at 3 µM was 84%. Also, under setting [4], the inhibition at 10 µM came to 98%. For `CCCCC(O)c1cc(C)ccc1Oc1ccnc2cc(OC)c(OC)cc12` (centres unmarked) [r10], in that order: 38% and 87%. For `COc1cc2c(Oc3cc4cccnc4nc3C)ccnc2cc1OCCN1CCCC(O)C1` (centres unmarked) [Compound r399], under setting [1], the inhibition at 3 µM is 99%. The inhibition at 10 µM under setting [2] came to 100%. For `CCCc1ccc(Oc2ccnc3cc(OC)c(OC)cc23)c(C(C)=O)c1` [r173], in that order: 83% and 100%.

On to `COc1ccc(Oc2ncnc3cc(OC)c(OC)cc23)c(C(C)=O)c1` [r162], for which the inhibition at 3 µM under setting [3] amounted to 5%. In addition, under setting [4], the inhibition at 10 µM is 54%.

Consider `COc1cc2c(Oc3ccc(C)cc3C(=O)c3ccccc3)ccnc2cc1OCCN1CCOCC1` [Compound r130], for which, under setting [3], the inhibition at 3 µM was found to be 90%. Further, under setting [4], the inhibition at 10 µM stood at 100%. For the molecule `COc1cc2c(Oc3cc(C)c(C)nc3-c3ccccc3)ccnc2cc1OCCO` [Compound r333], the inhibition at 3 µM under setting [1] was determined as 100%. Consider `COc1ccc(Oc2ccnc3cc(OCCCN4CCOCC4)c(OC)cc23)c(C(C)=O)c1` [r122], for which the inhibition at 3 µM under setting [3] worked out at 100%. The inhibition at 10 µM under setting [4] stood at 100%. On to `COc1ccc(Oc2ccnc3cc(OC)c(OC)cc23)c(C(=O)NC2CCCCC2)c1` [Compound r112], for which, under setting [3], the inhibition at 3 µM was 44%. Further, the inhibition at 10 µM under setting [4] was found to be 91%.

As for `Cc1cc(Oc2ncnc3ccccc23)c(-c2ccccn2)nc1C` [Compound 23, 4-(5,6-Dimethyl-[2,2']bipyridinyl-3-yloxy)-quinazoline], the inhibition at 3 µM under setting [5] worked out at 78%. In addition, the inhibition at 10 µM under setting [6] came to 98%. For the molecule `COc1cc2nccc(Oc3cc(C)c(C)cc3C(C)=O)c2cc1OC` [Compound r38], the inhibition at 3 µM under setting [3] is 98%. Besides, the inhibition at 10 µM under setting [4] amounted to 100%. `COc1cc2nccc(Oc3ccc(C)cc3C(=O)C3CCCC3)c2cc1OC` [r58]: the inhibition at 3 µM under setting [3] was 90%. In addition, the inhibition at 10 µM under setting [4] was 100%. `COc1cc2c(Oc3cc(C)c(C)nc3-c3cccnc3)ccnc2cc1OCCCCO` [Compound r444]: the inhibition at 3 µM under setting [1] is 100%. `c1ccc(-c2nc3ncccc3cc2Oc2ccnc3ccncc23)cc1` [Compound 74, 4-(2-Phenyl-[1,8]naphthyridin-3-yloxy)-[1,6]naphthyridine]: the inhibition at 3 µM under setting [5] is 53%. The inhibition at 10 µM under setting [6] was found to be 90%. In the case of `CCOC(=O)c1cc(C)ccc1Oc1ccnc2cc(OC)c(OC)cc12` [Compound r87], the inhibition at 3 µM under setting [3] amounted to 84%. Besides, under setting [4], the inhibition at 10 µM stood at 99%. On the same counts, the results for `COc1ccc(C(=O)c2ccccc2)c(Oc2ccnc3cc(OC)c(OC)cc23)c1` [Compound r64] are 67% and 98%. For the molecule `Cc1cc(Oc2ccnc3cc(C(F)(F)F)ccc23)c(-c2ccccn2)nc1C` [Compound 15, 5,6-Dimethyl-3-(7-trifluoromethyl-quinolin-4-yloxy)-[2,2']bipyridine], the inhibition at 3 µM under setting [5] was 99%. The inhibition at 10 µM under setting [6] came out at 100%. On the same counts, the results for `COc1cc2nccc(Oc3ccc(F)nc3-c3ccccn3)c2cc1OC` [Compound 115, 3-(6,7-Dimethoxy-quinolin-4-yloxy)-6-fluoro-[2,2']bipyridine] are 100% and 100%. As for `COc1cc2c(Oc3cc4cccnc4nc3C)ccnc2cc1OCC(CO)CO` [Compound r404], the inhibition at 3 µM under setting [1] stood at 29%. Besides, the inhibition at 10 µM under setting [2] is 72%. For `COc1cc2nccc(Oc3cccnc3Br)c2cc1OC` [r203], in that order: 19% and 52%. As to `COc1cc2nccc(Oc3cc4ccncc4cc3-c3ccccn3)c2cc1OC` [Compound r303, 6,7-Dimethoxy-4-(7-pyridin-2-yl-isoquinolin-6-yloxy)-quinoline], the inhibition at 3 µM under setting [1] is 96%.

Take `COc1cc2c(Oc3ccc(C)cc3C(=O)c3ccccc3)ccnc2cc1OCC(O)CN1CCNCC1` (centres unmarked) [Compound r157]: the inhibition at 3 µM under setting [3] was 100%. Further, the inhibition at 10 µM under setting [4] worked out at 100%. Regarding `COc1cc2nccc(Oc3cc(C)c(C)cc3C(C)=NNc3ccccn3)c2cc1OC` [Compound r194], under setting [1], the inhibition at 3 µM worked out at 47%. Besides, under setting [2], the inhibition at 10 µM was found to be 94%. As to `COc1cc2c(Oc3cc(C)c(C)nc3-c3ccc(C)cn3)ccnc2cc1OCCCO` [Compound r460], under setting [1], the inhibition at 3 µM is 97%. With `COc1cc2c(Oc3cc4ccccc4nc3C)ccnc2cc1OCCCCl` [Compound r375], under setting [1], the inhibition at 3 µM worked out at 84%. The inhibition at 10 µM under setting [2] is 100%. On to `COc1ccc(Oc2ccnc3cc(OC)c(OC)cc23)c(C(=O)c2ccccc2)c1` [r74], for which, under setting [3], the inhibition at 3 µM amounted to 27%. For the same molecule, the inhibition at 10 µM under setting [4] worked out at 84%. Turning to `COc1cc2c(Oc3ccc(C)cc3C(=O)c3ccccc3)ccnc2cc1OCCCN1CCC(N2CCCC2)CC1` [Compound r136], under setting [3], the inhibition at 3 µM worked out at 90%. Moreover, the inhibition at 10 µM under setting [4] was determined as 100%. In the case of `COc1cc2c(Oc3cc(C)c(C)nc3-c3nc(C)c(C)s3)ccnc2cc1OCc1ccccc1` [Compound r454], under setting [1], the inhibition at 3 µM was found to be 41%. The inhibition at 10 µM under setting [2] was 75%. Regarding `COc1cc2c(Oc3cc4ccccc4nc3C)ccnc2cc1OCCNC(=O)CC(C)(C)CC(=O)O` [Compound r357], the inhibition at 3 µM under setting [1] amounted to 27%. Besides, the inhibition at 10 µM under setting [2] came to 60%. For `COc1ccc(Oc2ccnc3cc(OCCN4CCOCC4)c(OC)cc23)c(C(C)=O)c1` [r120], under setting [3], the inhibition at 3 µM stood at 94%. Moreover, under setting [4], the inhibition at 10 µM was determined as 100%. With `Cc1sc2ncnc(Oc3cc4cccnc4nc3-c3ccccc3)c2c1C` [Compound 78, 3-(5,6-Dimethyl-thieno[2,3-d]pyrimidin-4-yloxy)-2-phenyl-[1,8] naphthyridine], the inhibition at 3 µM under setting [5] worked out at 75%. Further, the inhibition at 10 µM under setting [6] was 99%. `COc1cc2c(Oc3cc4cccnc4nc3-c3ccccc3)ccnc2cc1OCCO` [Compound 178, 2-[6-Methoxy-4-(2-phenyl-[1,8]naphthyridin-3-yloxy)-quinolin-7-yloxy]-ethanol]: the inhibition at 3 µM under setting [5] was 100%. The inhibition at 10 µM under setting [6] stood at 100%.

For the molecule `COc1cc2nccc(Oc3ccc(Cl)cc3C(=O)Nc3ccccc3)c2cc1OC` [Compound r105], the inhibition at 3 µM under setting [3] was determined as 17%. Under setting [4], the inhibition at 10 µM was 88%. In the case of `Cc1ccc(-c2nc(C)c(C)cc2Oc2ncnc3ccccc23)nc1` [Compound 38, 4-(5,6,5'-Trimethyl-[2,2']bipyridin-3-yloxy)-quinazoline], the inhibition at 3 µM under setting [5] was determined as 45%. Moreover, under setting [6], the inhibition at 10 µM is 89%.

For `COc1cc2nccc(Oc3ccc(C)nc3-c3ccccc3OC)c2cc1OC` [Compound r227], under setting [1], the inhibition at 3 µM worked out at 50%. Moreover, the inhibition at 10 µM under setting [2] is 87%. Take `COc1cc2nccc(Oc3ccc(C)nc3[N+](=O)[O-])c2cc1OC` [r210]: the inhibition at 3 µM under setting [1] amounted to 45%. In addition, the inhibition at 10 µM under setting [2] is 80%. Turning to `COc1cc2nccc(Oc3ccccc3Cc3ccccc3)c2cc1OC` [Compound r1, 4-(2-Benzylphenoxy)-6,7-dimethoxyquinoline], under setting [3], the inhibition at 3 µM was found to be 5%. For the same molecule, the inhibition at 10 µM under setting [4] came to 53%.

Take `C=C(C)C(=O)Oc1ccc(C(=O)c2ccccc2)c(Oc2ccnc3cc(OC)c(OC)cc23)c1` [Compound r67]: the inhibition at 3 µM under setting [3] amounted to 4%. The inhibition at 10 µM under setting [4] was found to be 93%. Regarding `COc1cc2nccc(Oc3ccccc3C(=O)c3ccccc3)c2cc1OC` [Compound r63], under setting [7], the inhibition at 3 µM came out at 57% and the inhibition at 10 µM came to 91%.

With `COc1cc2nccc(Oc3cnc4ncccc4c3)c2cc1OC` [Compound r427], under setting [1], the inhibition at 3 µM is 44%. In addition, under setting [2], the inhibition at 10 µM came to 80%. For `COc1cc2c(Oc3cc4cnccc4nc3C)ccnc2cc1OCC(O)CO` (centres unmarked) [Compound r408], in that order: 38% and 79%.

Consider `COc1cc2nccc(Oc3cc(C)c(C)nc3-c3ccccn3)c2cc1C(N)=O` [Compound 22, 4-(5,6-Dimethyl-[2,2']bipyridin-3-yloxy)-7-methoxy-quinoline-6-carboxylic acid amide], for which the inhibition at 1 µM (A549, test compound 1 µM, TGFβ-1 2 ng/ml, 4 hr, Table 1A, read-out: TGFβ inhibition rate, %) turned out to be 81%. The inhibition at 3 µM under setting [5] came out at 99%.
